According to PubChem BioAssay (NCI):
Values joined by “and” are separate entries in the source; they are usually repeats but may differ in a detail not shown here. Identical values can stand only once.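 96-well plates; 48 h exposure; 5 concentrations. Endpoints by linear interpolation between flanking doses. Not reached: highest tested concentration assigned. GI50: concentration for 50% inhibition of growth. TGI: total growth inhibition.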

Columns and labels:
Assay in all cases: inhibition of tumour cell growth, NCI panel, 48 h
KM12 colon = test system: KM12 colon
786-0 renal = test system: 786-0 renal
M14 melanoma = test system: M14 melanoma
HOP-62 NSCLC = test system: HOP-62 NSCLC
TK-10 renal = test system: TK-10 renal
MCF7 breast = test system: MCF7 breast
NCI/ADR-RES ovarian = test system: NCI/ADR-RES ovarian
SW-620 colon = test system: SW-620 colon
NCI-H23 lung = test system: NCI-H23 lung
SF-295 CNS = test system: SF-295 CNS

Row | SMILES | GI50 (KM12 colon) | TGI (KM12 colon) | GI50 (786-0 renal) | TGI (786-0 renal) | GI50 (M14 melanoma) | TGI (M14 melanoma) | GI50 (HOP-62 NSCLC) | TGI (HOP-62 NSCLC) | GI50 (TK-10 renal) | TGI (TK-10 renal) | GI50 (MCF7 breast) | TGI (MCF7 breast) | GI50 (NCI/ADR-RES ovarian) | TGI (NCI/ADR-RES ovarian) | GI50 (SW-620 colon) | TGI (SW-620 colon) | GI50 (NCI-H23 lung) | TGI (NCI-H23 lung) | GI50 (SF-295 CNS) | TGI (SF-295 CNS)
1 | C=CC(=O)Nc1cccc(Oc2nc(Nc3ccc(N4CCN(C)CC4)cc3)nc3ccsc23)c1 | 3.36 µM and 2.49 µM | > 10 µM and 6.77 µM | 1.3 µM and 2.07 µM | 3.25 µM and 4.62 µM | 1.87 µM and 2.01 µM | 3.75 µM and 3.8 µM | 3.71 µM and 3.73 µM | > 10 µM and 15.7 µM | 0.398 µM and 0.6 µM | 2.56 µM and 4.04 µM | 2.22 µM and 1.72 µM | 8.96 µM and 4.48 µM | 2.73 µM and 3.3 µM | > 10 µM and 20.1 µM | 2.07 µM and 1.92 µM | 4.61 µM and 4.07 µM | 4.27 µM and 9.48 µM | > 10 µM and 36.4 µM | 7.68 µM | > 10 µM and 21.3 µM
2 | CC(=O)/C=C/c1cn(C(=O)OC(C)(C)C)c2ccc(Br)cc12 | 13.8 µM | 29.1 µM | 11.8 µM | 25.3 µM | 30.1 µM | > 100 µM | 15.8 µM | 30.4 µM | 17.6 µM | 33.9 µM | 9.71 µM | 46.5 µM | 17.9 µM | 45.4 µM | 19.1 µM | 39 µM | 19.8 µM | 42 µM | 14.1 µM | 28.8 µM
3 | O=C(O)c1ccc(C(=O)c2ccccc2)c(C(=O)O)c1 |  | > 100 µM |  | > 100 µM |  | > 100 µM |  | > 100 µM |  | > 100 µM |  | > 100 µM |  | > 100 µM |  | > 100 µM |  | > 100 µM |  | > 100 µM
4 | FC(F)(F)c1ccc(-c2cnc(-c3ncon3)nc2NC2CCCCCC2)cc1 | 36.3 µM | > 100 µM | 63.6 µM | > 100 µM | 56.3 µM | > 100 µM | 76.8 µM | > 100 µM | > 100 µM | > 100 µM | 31.6 µM | > 100 µM | 35.3 µM | > 100 µM | 43.3 µM | > 100 µM | 37 µM | > 100 µM | 34.5 µM | > 100 µM
5 | COc1cc2c3c(n(C)c(=O)c2cc1OC)-c1cc2c(cc1/C3=C\CCCCN1C(=O)c3ccccc3C1=O)OCO2 | 59.3 µM | > 100 µM | 16 µM | > 100 µM | 38.4 µM | > 100 µM | 17.4 µM | 70.4 µM | 1.11 µM | 29.1 µM | 10.8 µM | 53.9 µM | 24.1 µM | > 100 µM | 7 µM | > 100 µM | 1.34 µM | 19.2 µM | 11 µM | 68.1 µM
6 | CCCCCCCCCCCCCCCCCC[n+]1ccc2c(C)c3c(c(C)c2c1)c1cc(O)ccc1n3CC | 2.01 µM | > 100 µM | 2.21 µM | 10.4 µM | 1.43 µM | 3.34 µM | 2.66 µM | 10.4 µM | 1.49 µM | 4.13 µM | 2.75 µM | 17.1 µM | 10.8 µM | 39 µM | 1.79 µM | 7.1 µM | 0.912 µM | 6.57 µM | 1.42 µM | 4.3 µM
7 | O=[N+]([O-])c1ccc(C=Cc2ccccc2)cc1.[C-]#[O+].[C-]#[O+].[C-]#[O+].[Cr] | 13.7 µM | > 100 µM | 3.41 µM | > 100 µM | 7.58 µM | > 100 µM | > 100 µM | > 100 µM | 12 µM | > 100 µM | 5.63 µM | > 100 µM | 13.4 µM | > 100 µM | 79.5 µM | > 100 µM | 20.9 µM | > 100 µM | 42.1 µM | > 100 µM
8 | CN[C@@H](C)C(=O)N[C@H](C(=O)N1CCC[C@H]1C(=O)Nc1sc(-c2ncco2)nc1-c1ccccc1)C1CCCCC1 | 43.3 µM | > 100 µM | 28.2 µM | > 67.2 µM | 18.5 µM | 36.7 µM | > 92.2 µM | > 100 µM | 57.5 µM | > 100 µM | 21.7 µM | > 100 µM | 27.4 µM | > 83.2 µM | 78.4 µM | > 100 µM | 25.8 µM | > 100 µM | 52.9 µM | > 100 µM
9 | O=S(=O)(Nc1cc(Sc2cccc3cccnc23)c(O)c2ccccc12)c1ccc(F)cc1 | 2.48 µM | 14.2 µM | 1.19 µM | 6.85 µM | 1.27 µM | 3.53 µM | 2.05 µM | 17 µM | 2.81 µM | 11.5 µM | 1.05 µM | 3.21 µM | 0.731 µM | 5.62 µM | 1.41 µM | 3.86 µM | 1.46 µM | 4.32 µM | 3.34 µM | 12.8 µM
10 | Cc1ccc(/C=N\NC(=O)c2[nH]c3ccc(F)cc3c2-c2ccccc2)cc1 | 0.0282 µM | 0.898 µM | 0.0387 µM | 23.2 µM | 0.0275 µM |  | 0.0422 µM | 5.88 µM | 0.0412 µM | > 93.3 µM | 0.0299 µM | > 100 µM | 0.0238 µM | 1.91 µM | 0.0428 µM | > 100 µM | 0.0374 µM | > 43.8 µM | 0.0266 µM | 1.2 µM
11 | COc1cccc(OC(=O)c2ccc(C(F)(F)F)nc2Nc2cc(Cl)ccc2C)c1 | 20.6 µM | 50 µM | 10.7 µM | 24.5 µM | 19.3 µM | 56.6 µM | 15.6 µM | 36.1 µM | 30.7 µM | 92 µM | 4.2 µM | > 100 µM | 19.6 µM | > 100 µM | 5.31 µM | 50.7 µM | 20.2 µM | 49.5 µM | 23.9 µM | 48.2 µM
12 | O=C(OCc1ccc2ccccc2n1)c1cn(C2CC2)c2cc(N3CCN(Cc4ccc5ccccc5n4)CC3)c(F)cc2c1=O | 41.6 µM | > 100 µM | > 49.2 µM | > 68.4 µM | > 56.3 µM | 99.8 µM | > 53.8 µM | > 95.2 µM | 31.9 µM | > 74.6 µM | 35 µM | > 92.7 µM | 61.5 µM | > 100 µM | > 89.5 µM | > 100 µM | 42.3 µM | > 88.6 µM | 35.2 µM | > 100 µM
